Tests used:
[1] = GSH reactivity in PBS buffer at pH 7.4 assessed as half life; type: ADME
[2] = Cysteine-reactive in peptide assessed as half life using fluorogenic monochlorobimane/zinc complex by measuring fluorescence intensity; type: ADME; conditions: cysteine-containing peptide
[3] = Cytotoxicity against African green monkey Vero E6 cells; type: toxicity, cell-based, Vero C1008; conditions: chlorocebus sabaeus
[4] = biological target: Tyrosine-protein kinase ABL1 (Homo sapiens, UniProt P00519); experiment: Inhibition of wild type N-terminal His tagged ABL kinase (unknown origin) using fluorescence-labelled substrate by off-chip mobility shift assay
[5] = Reactivity of SuTEx assessed as aryl-AG modifications by measuring half life by HLPC analysis; type: physicochemical
[6] = biological target: T1, Carbonic anhydrase 2 (Homo sapiens, UniProt P00918); experiment: Binding affinity to carbonic anhydrase II (unknown origin) fragment assessed as rate of protein modification by measuring inactivation rate constant (Kinact)
[7] = biological target: T1, Carbonic anhydrase 2; experiment: Rate of protein modification at carbonic anhydrase II (unknown origin) fragment assessed as inhibition constant
[8] = GSH reactivity in PBS buffer at pH 8 assessed as second-order reaction rate constants upto 200 uM by DTNB assay; type: ADME; conditions: pH 8, 200 µM
[9] = biological target: T2, Replicase polyprotein 1ab (Severe acute respiratory syndrome coronavirus 2, UniProt P0DTD1); experiment: Inhibition of SARS-CoV-2 papain-like protease (PLpro) using fluorogenic peptide substrate by fluorescent assay
[10] = biological target: T2, Replicase polyprotein 1ab; experiment: Binding affinity to SARS-CoV-2 cysteine protease-Mpro assessed as inhibition constant
[11] = biological target: Replicase polyprotein 1ab (Severe acute respiratory syndrome coronavirus 2) (UniProt P0DTD1); experiment: Binding affinity to SARS-CoV-2 cysteine protease-Mpro assessed as inactivation rate constant (Kinact)
[12] = Thiol reactivity of compound assessed as (Kinact/Ki) rate constant ratio; type: ADME
[13] = biological target: T3, Tyrosine-protein kinase BTK (Homo sapiens, UniProt Q06187); experiment: Binding affinity to BTK (unknown origin) assessed as inhibition constant
[14] = biological target: T3, Tyrosine-protein kinase BTK
Description: Binding affinity to BTK (unknown origin) assessed as inactivation rate constant (Kinact)

[15] = Reactivity rate at cyclic sulfonamide assessed as rate constant by CSA sulfenic-acid model; type: physicochemical
[16] = Toxicity in ip dosed mature male rabbit assessed as death; type: organism-based, Oryctolagus cuniculus; conditions: in vivo
[17] = Reactivity of SuTEx assessed as aryl-LG modifications by measuring half life by HLPC analysis; type: physicochemical
[18] = biological target: T2, Replicase polyprotein 1ab; experiment: Inhibition of SARS-CoV-2 cysteine protease main protease

T3 sequence (Q06187 whole entry): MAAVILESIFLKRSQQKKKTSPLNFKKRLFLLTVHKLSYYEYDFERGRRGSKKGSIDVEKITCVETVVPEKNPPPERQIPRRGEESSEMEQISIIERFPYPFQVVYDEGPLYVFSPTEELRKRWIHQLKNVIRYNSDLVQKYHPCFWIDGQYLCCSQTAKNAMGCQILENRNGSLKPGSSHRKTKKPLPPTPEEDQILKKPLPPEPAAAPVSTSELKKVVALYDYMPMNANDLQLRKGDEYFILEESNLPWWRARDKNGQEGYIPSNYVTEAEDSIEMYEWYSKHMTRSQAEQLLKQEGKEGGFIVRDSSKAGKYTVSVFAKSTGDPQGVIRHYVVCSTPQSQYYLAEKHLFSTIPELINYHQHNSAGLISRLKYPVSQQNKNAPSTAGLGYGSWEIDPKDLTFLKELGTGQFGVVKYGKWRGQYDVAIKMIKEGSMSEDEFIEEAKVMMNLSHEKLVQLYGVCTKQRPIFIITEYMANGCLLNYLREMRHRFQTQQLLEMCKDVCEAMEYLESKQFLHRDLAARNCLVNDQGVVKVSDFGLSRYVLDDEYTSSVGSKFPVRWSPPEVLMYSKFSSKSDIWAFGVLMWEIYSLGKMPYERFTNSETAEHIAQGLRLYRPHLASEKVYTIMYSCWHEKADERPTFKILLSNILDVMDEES
Tyrosine-protein kinase ABL1, sequence (P00519 whole entry): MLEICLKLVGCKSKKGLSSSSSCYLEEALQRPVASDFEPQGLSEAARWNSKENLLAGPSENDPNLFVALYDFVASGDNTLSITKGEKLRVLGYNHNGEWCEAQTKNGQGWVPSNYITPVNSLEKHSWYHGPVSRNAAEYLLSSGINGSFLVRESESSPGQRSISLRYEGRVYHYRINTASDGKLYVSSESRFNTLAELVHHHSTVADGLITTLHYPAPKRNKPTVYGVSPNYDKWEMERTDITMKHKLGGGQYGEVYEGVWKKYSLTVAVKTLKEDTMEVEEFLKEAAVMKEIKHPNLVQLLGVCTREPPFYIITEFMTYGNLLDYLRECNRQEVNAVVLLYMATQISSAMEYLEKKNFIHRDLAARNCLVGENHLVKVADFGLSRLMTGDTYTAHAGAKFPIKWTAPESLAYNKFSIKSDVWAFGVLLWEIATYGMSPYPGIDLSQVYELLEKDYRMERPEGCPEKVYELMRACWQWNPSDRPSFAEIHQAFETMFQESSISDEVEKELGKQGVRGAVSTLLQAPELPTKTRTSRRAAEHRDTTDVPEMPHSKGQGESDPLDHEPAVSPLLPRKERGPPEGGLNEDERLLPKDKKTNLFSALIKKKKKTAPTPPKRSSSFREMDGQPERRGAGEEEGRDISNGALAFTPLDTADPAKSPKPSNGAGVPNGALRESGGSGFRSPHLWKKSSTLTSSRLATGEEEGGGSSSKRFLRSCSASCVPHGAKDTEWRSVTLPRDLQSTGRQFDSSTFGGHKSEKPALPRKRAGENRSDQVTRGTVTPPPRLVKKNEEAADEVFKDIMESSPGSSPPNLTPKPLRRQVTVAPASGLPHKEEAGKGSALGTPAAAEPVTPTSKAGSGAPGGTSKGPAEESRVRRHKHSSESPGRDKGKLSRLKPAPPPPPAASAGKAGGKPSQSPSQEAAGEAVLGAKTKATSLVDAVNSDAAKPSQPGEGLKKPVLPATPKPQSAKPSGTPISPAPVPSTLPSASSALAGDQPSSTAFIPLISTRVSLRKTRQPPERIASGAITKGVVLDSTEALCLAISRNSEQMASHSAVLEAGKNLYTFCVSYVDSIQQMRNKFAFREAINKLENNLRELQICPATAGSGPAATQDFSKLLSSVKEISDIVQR

NC(=O)CCl
half-life [1]: < 1.67 h
half-life [2]: 2.4 min

C[C@@H](NC(=O)[C@H](c1cccnc1)N(C(=O)C(Cl)Cl)c1ccc(-c2ccccc2)cc1)c1ccccc1
CC50 [3]: > 100 µM

COc1cc(S(=O)(=O)F)ccc1-c1c[nH]c2ncc(-c3cncc(C(=O)N(C)C)c3)cc12
IC50 [4]: 0.073 µM

C#CCOCCOCCOc1cccc(N2CCN(C(=O)C(F)F)CC2)c1
half-life [1]: 129 h

COc1ccc(-c2ncn(S(=O)(=O)c3cccnc3)n2)cc1
half-life [5]: 1.6 min

CC(NS(=O)(=O)c1ccc(S(=O)(=O)F)cc1)c1cccc(S(N)(=O)=O)c1 (stereo not given)
Kinact [6]: 1.7 10^-5/s
Ki [7]: < 5 µM

COc1ccc(-c2ncn(S(=O)(=O)c3ccc(OC)cc3)n2)cc1
half-life [5]: 183 min

NS(=O)(=O)c1cccc(CNC(=O)c2cccc(S(=O)(=O)F)c2)c1
Kinact [6]: 21 10^-5/s
Ki [7]: < 5 µM

CC(NC(=O)c1ccc(S(=O)(=O)F)cc1)c1cccc(S(N)(=O)=O)c1 (stereo not given)
Kinact [6]: 0.45 10^-5/s
Ki [7]: 33 µM

COc1cc(OC)cc(C(=O)C23CC2C3)c1 (stereo not given)
half-life [1]: 32.7 h

CN(C)C/C=C/C(N)=O
half-life [2]: 30.6 min

NS(=O)(=O)c1cccc(CNC(=O)c2ccc(S(=O)(=O)F)cc2)c1
Kinact [6]: 12 10^-5/s
Ki [7]: < 5 µM

C=CC(=O)NCc1ccccc1
K [8]: 0.003 M⁻¹ s⁻¹

C=CCSc1nc2sc3c(c2c(=O)n1CC)CCc1ccccc1-3
half-life [1]: 0.683 h
IC50 [9]: 0.8 µM

C#CCOCCOCCOc1cccc(N2CCN(C(=O)C(C)(F)Br)CC2)c1 (stereo not given)
half-life [1]: > 167 h

CC(=O)N(C)c1ccccc1
half-life [1]: 0.333 h

COc1ccc(-c2ncn(S(=O)(=O)c3ccc(-c4ccccc4)cc3)n2)cc1
half-life [5]: 17.3 min

CCSc1nc2sc3c(c2c(=O)n1CC)CCc1ccccc1-3
half-life [1]: 0.683 h
IC50 [9]: 4.9 µM

O=C(NCCc1cccc(F)c1)[C@H](c1cncnc1)N(C(=O)[C@H](F)Cl)c1ccc(S(F)(F)(F)(F)F)cc1
Ki [10]: 64.7 µM
Kinact [11]: 4.3 10^-3/s

CC(NC(=O)c1cccc(S(=O)(=O)F)c1)c1cccc(S(N)(=O)=O)c1 (stereo not given)
Kinact [6]: 0.24 10^-5/s
Ki [7]: 53 µM

NC(=O)C(Cl)Br (stereo not given)
half-life [1]: < 1.67 h

CC(C)(C)OC(=O)/C=C/C(=O)N1CCC[C@@H](n2nc(-c3ccc(Oc4ccccc4)cc3)c3c(N)ncnc32)C1
kinact/KI [12]: 35000 M⁻¹ s⁻¹
Ki [13]: 0.221 µM
Kinact [14]: 7.62 10^-3/s

C#CCOCCOCCOc1cccc(N2CCN(C(=O)C(F)(F)Br)CC2)c1
half-life [1]: 33.4 h

C#CCCCC1CCC(=O)CC1=O (stereo not given)
K [15]: 10 M⁻¹ s⁻¹

O=C(NCCc1cccc(F)c1)[C@@H](c1cncnc1)N(C(=O)[C@H](F)Cl)c1ccc(S(F)(F)(F)(F)F)cc1
Ki [10]: 1.34 µM
Kinact [11]: 5.6 10^-3/s

NS(=O)(=O)c1ccc(CCNS(=O)(=O)c2ccc(S(=O)(=O)F)cc2)cc1
Kinact [6]: 2.1 10^-5/s
Ki [7]: < 5 µM

O=C(NCCCCCCCCNC(=O)C(Cl)Cl)C(Cl)Cl
LD50 [16]: 10000 mg/kg

NS(=O)(=O)c1cccc(CNC(=O)Cc2ccc(S(=O)(=O)F)cc2)c1
Kinact [6]: 0.73 10^-5/s
Ki [7]: < 5 µM

CC(NS(=O)(=O)c1cccc(S(=O)(=O)F)c1)c1cccc(S(N)(=O)=O)c1 (stereo not given)
Kinact [6]: 3.9 10^-5/s
Ki [7]: 12 µM

C#CCOCCOCCOc1cccc(N2CCN(C(=O)CF)CC2)c1
half-life [1]: > 167 h

C#CCCCN1c2ccccc2C(=O)CS1(=O)=O
K [15]: 1700 M⁻¹ s⁻¹

O=S(=O)(c1ccc(F)cc1)n1cnc(-c2ccc(Br)cc2)n1
half-life [17]: 6.6 min

C#CCCC(=O)C(SC[C@H](NC(=O)OCc1ccccc1)C(=O)N[C@H](C(=O)OC)C(C)C)[P+](c1ccccc1)(c1ccccc1)c1ccccc1 (stereo not given in full)
K [15]: 15000 M⁻¹ s⁻¹

C[C@@H](NC(=O)[C@H](c1cccnc1)N(C(=O)C(Br)(Br)Br)c1ccc(-c2ccccc2)cc1)c1ccccc1
IC50 [18]: 0.08 µM
CC50 [3]: 5.48 µM
